{"source": "patent US10745390B2", "about": "“Small molecule activators of mitochondrial function” (THE TRUSTEES OF THE UNIVERSITY OF PENNSYLVANIA, priority 2008, dated 2020)"}
{"system": "I154F FA cells", "experiment": "I154F frataxin point-mutation model, rescue from FAC and/or BSO", "type": "cell-based, murine", "conditions": "not given", "from_the_text": "2. Preliminary testing in the I154F frataxin point-mutation model determines whether test compounds can rescue I154F FA cells from lethal concentrations of FAC and/or BSO. Among the mammalian-cell models that have, or recapitulate, the genetic defects underlying FA, by far the most robust (and best validated) is the I154F murine frataxin point-mutation model developed by Puccio and colleagues (Calmels, N. et al.), the first cellular model based on frataxin missense mutations that reproduces spontaneously the defects associated with Friedreich ataxia (PLoS One 4, e6379 (2009)). […] This model is also extremely stable, with phenotypes unchanged after months of continuous culture. In contrast, the mutations in available primary human FA fibroblasts are GAA repeat expansions in the first intron of the FXN gene; occasional cells in which these expansions contract have a growth advantage and take over the culture, diluting the phenotype and increasing variance in various measures of compound efficacy.\nIn another screen, testing was conducted in the I154F point-mutation model as described above, to determine whether test compounds could rescue I154F FA cells from lethal or sublethal concentrations of FAC and/or BSO. Effective in this screen were the following compounds: N-[(5-chloro-8-hydroxyquinolin-7-yl)-thiophen-2-ylmethyl]-3-phenylpropanamide, N-[(5-chloro-8-hydroxyquinolin-7-yl)-thiophen-2-ylmethyl]pentanamide, N-[(5-chloro-8-hydroxyquinolin-7-yl)-furan-2-ylmethyl]-3-phenylpropanamide, N-[(5-chloro-8-hydroxyquinolin-7-yl)-furan-2-ylmethyl]propanamide, N-[(5-chloro-8-hydroxyquinolin-7-yl)-furan-2-ylmethyl]pentanamide, N-[(5-chloro-8-hydroxyquinolin-7-yl)-tolyl]-3-phenylpropanamide, N-[(5-chloro-8-hydroxyquinolin-7-yl)-(3-methoxyphenyl)methyl]-3-phenylpropanamide, N-[(5-chloro-8-hydroxyquinolin-7-yl)-(4-dimethylaminophenyl)methyl]-3-phenylpropanamide, N-[(5-chloro-8-hydroxyquinolin-7-yl)-(4-chlorophenyl)methyl]-3-phenylpropanamide, N-[(5-chloro-8-hydroxyquinolin-7-yl)-(3-chlorophenyl)methyl]-3-phenylpropanamide, N-[(5-chloro-8-hydroxyquinolin-7-yl)-(2-chlorophenyl)methyl]-3-phenylpropanamide, N-[(5-chloro-8-hydroxyquinolin-7-yl)-(3,4-dimethoxyphenyl)methyl]-3-phenylpropanamide, N-[(5-chloro-8-hydroxyquinolin-7-yl)-(2,4-dimethoxyphenyl)methyl]-3-phenylpropanamide, N-[(5-chloro-8-hydroxyquinolin-7-yl)-(3,4,5-trimethoxyphenyl)methyl]-3-phenylpropanamide, N-[(5-chloro-8-hydroxyquinolin-7-yl)-(2-bromophenyl)methyl]-3-phenylpropanamide, N-[(5-chloro-8-hydroxyquinolin-7-yl)-p-tolyl-methyl]-3-phenylpropanamide, N-[(5-chloro-8-hydroxyquinolin-7-yl)-(2-hydroxyphenyl)methyl]-3-phenylpropanamide (1a-18), and N-[(5-chloro-8-hydroxyquinolin-7-yl)-(4-methoxyphenyl)methyl]-3-phenylpropanamide."}
{"smiles": "COc1ccc(C(NC(=O)CCc2ccccc2)c2cc(Cl)c3cccnc3c2O)c(OC)c1", "note": "(centres unmarked) [N-[(5-chloro-8-hydroxyquinolin-7-yl)-(2,4-dimethoxyphenyl)methyl]-3-phenylpropanamide]", "rescue of I154F FA cells from lethal or sublethal concentrations of FAC and/or BSO": "Effective"}
{"smiles": "Cc1ccc(C(NC(=O)CCc2ccccc2)c2cc(Cl)c3cccnc3c2O)cc1", "note": "(centres unmarked) [N-[(5-chloro-8-hydroxyquinolin-7-yl)-p-tolyl-methyl]-3-phenylpropanamide]", "rescue of I154F FA cells from lethal or sublethal concentrations of FAC and/or BSO": "Effective"}
{"smiles": "CCCCC(=O)NC(c1ccco1)c1cc(Cl)c2cccnc2c1O", "note": "(centres unmarked) [N-[(5-chloro-8-hydroxyquinolin-7-yl)-furan-2-ylmethyl]pentanamide]", "rescue of I154F FA cells from lethal or sublethal concentrations of FAC and/or BSO": "Effective"}
{"smiles": "O=C(CCc1ccccc1)NC(c1ccco1)c1cc(Cl)c2cccnc2c1O", "note": "(centres unmarked) [N-[(5-chloro-8-hydroxyquinolin-7-yl)-furan-2-ylmethyl]-3-phenylpropanamide]", "rescue of I154F FA cells from lethal or sublethal concentrations of FAC and/or BSO": "Effective"}
{"smiles": "O=C(CCc1ccccc1)NC(c1ccccc1O)c1cc(Cl)c2cccnc2c1O", "note": "(centres unmarked) [N-[(5-chloro-8-hydroxyquinolin-7-yl)-(2-hydroxyphenyl)methyl]-3-phenylpropanamide]", "rescue of I154F FA cells from lethal or sublethal concentrations of FAC and/or BSO": "Effective"}
{"smiles": "COc1cc(C(NC(=O)CCc2ccccc2)c2cc(Cl)c3cccnc3c2O)cc(OC)c1OC", "note": "(centres unmarked) [N-[(5-chloro-8-hydroxyquinolin-7-yl)-(3,4,5-trimethoxyphenyl)methyl]-3-phenylpropanamide]", "rescue of I154F FA cells from lethal or sublethal concentrations of FAC and/or BSO": "Effective"}
{"smiles": "CN(C)c1ccc(C(NC(=O)CCc2ccccc2)c2cc(Cl)c3cccnc3c2O)cc1", "note": "(centres unmarked) [N-[(5-chloro-8-hydroxyquinolin-7-yl)-(4-dimethylaminophenyl)methyl]-3-phenylpropanamide]", "rescue of I154F FA cells from lethal or sublethal concentrations of FAC and/or BSO": "Effective"}
{"smiles": "O=C(CCc1ccccc1)NC(c1cccc(Cl)c1)c1cc(Cl)c2cccnc2c1O", "note": "(centres unmarked) [N-[(5-chloro-8-hydroxyquinolin-7-yl)-(3-chlorophenyl)methyl]-3-phenylpropanamide]", "rescue of I154F FA cells from lethal or sublethal concentrations of FAC and/or BSO": "Effective"}
{"smiles": "COc1ccc(C(NC(=O)CCc2ccccc2)c2cc(Cl)c3cccnc3c2O)cc1", "note": "(centres unmarked) [N-[(5-chloro-8-hydroxyquinolin-7-yl)-(4-methoxyphenyl)methyl]-3-phenylpropanamide]", "rescue of I154F FA cells from lethal or sublethal concentrations of FAC and/or BSO": "Effective"}
{"smiles": "COc1ccc(C(NC(=O)CCc2ccccc2)c2cc(Cl)c3cccnc3c2O)cc1OC", "note": "(centres unmarked) [N-[(5-chloro-8-hydroxyquinolin-7-yl)-(3,4-dimethoxyphenyl)methyl]-3-phenylpropanamide]", "rescue of I154F FA cells from lethal or sublethal concentrations of FAC and/or BSO": "Effective"}
{"smiles": "CCC(=O)NC(c1ccco1)c1cc(Cl)c2cccnc2c1O", "note": "(centres unmarked) [N-[(5-chloro-8-hydroxyquinolin-7-yl)-furan-2-ylmethyl]propanamide]", "rescue of I154F FA cells from lethal or sublethal concentrations of FAC and/or BSO": "Effective"}
{"smiles": "COc1cccc(C(NC(=O)CCc2ccccc2)c2cc(Cl)c3cccnc3c2O)c1", "note": "(centres unmarked) [N-[(5-chloro-8-hydroxyquinolin-7-yl)-(3-methoxyphenyl)methyl]-3-phenylpropanamide]", "rescue of I154F FA cells from lethal or sublethal concentrations of FAC and/or BSO": "Effective"}
{"smiles": "O=C(CCc1ccccc1)NC(c1ccccc1Br)c1cc(Cl)c2cccnc2c1O", "note": "(centres unmarked) [N-[(5-chloro-8-hydroxyquinolin-7-yl)-(2-bromophenyl)methyl]-3-phenylpropanamide]", "rescue of I154F FA cells from lethal or sublethal concentrations of FAC and/or BSO": "Effective"}
{"smiles": "O=C(CCc1ccccc1)NC(c1ccc(Cl)cc1)c1cc(Cl)c2cccnc2c1O", "note": "(centres unmarked) [N-[(5-chloro-8-hydroxyquinolin-7-yl)-(4-chlorophenyl)methyl]-3-phenylpropanamide]", "rescue of I154F FA cells from lethal or sublethal concentrations of FAC and/or BSO": "Effective"}
{"smiles": "O=C(CCc1ccccc1)NC(c1ccccc1Cl)c1cc(Cl)c2cccnc2c1O", "note": "(centres unmarked) [N-[(5-chloro-8-hydroxyquinolin-7-yl)-(2-chlorophenyl)methyl]-3-phenylpropanamide]", "rescue of I154F FA cells from lethal or sublethal concentrations of FAC and/or BSO": "Effective"}
{"system": "yeast lacking Yfh1p", "experiment": "Yeast-based screening assay (WST-1 tetrazolium dye reduction)", "type": "cell-based", "conditions": "glycerol medium, 72 h, OD450, single dose 50 uM, activity threshold >1.32 fold increase in absorbance", "experimental": "The aim of this assay is to identify compounds that can improve mitochondrial function in yeast lacking Yfh1p grown in a non-fermentable growth medium. The yeast Yfh1p expression construct used in this study has a galactose-inducible, glucose-repressible promoter driving Yfh1p production. Yfh1p is expressed when yeast are grown in the presence of galactose and inhibited when they are grown in the presence of dextrose. Growing the cells in the presence of dextrose not only turns off the expression of Yfh1p, but also leads to the depletion of Yfh1p in the cells. Transferring the Yfh1p-depleted cells into a non-fermentable, glycerol-based medium dictates that the yeast must use an oxidative pathway. […] Cleavage of the tetrazolium salt to formazan is accompanied by an increase in absorbance at 450 nm.\nCompounds in the single dose assay were evaluated on the basis of Fold Induction compared to yeast only, and those in the dose response assay on percent activation, i.e. percent induction of tetrazolium dye reduction in yeast grown in a non-fermentable growth medium. Percent activation was calculated using the optical density in control wells with cells treated with positive control compound (25 uM methyl 4-(1, 2, 4, 5-tetraazin-3-yl) phenyl ether (MLSMR External ID: MLS000550612; PubChem SID: 14718875)) as full induction of tetrazolium dye reduction (100% activation), and wells with cells grown in medium without methyl 4-(1, 2, 4, 5-tetraazin-3-yl) phenyl ether as an indicator of 0% activation. Library compounds were screened at 50 uM. From the 50 uM single dose assay, 1250 compounds with significant tetrazolium dye reduction were selected for confirmatory dose response assay. These compounds were screened in a 10-point dilution series ranging from 0.01 to 100 uM.\nThe following screening protocol was followed. Yeast cells containing an inducible/repressible promoter for Yfh1p expression were cultured in induction medium (Yfh1 on) with Galactose as the carbon source, and then shifted to repression medium (Yfh1 off) with Dextrose as the carbon source (for 24 hours) to allow Yfh1 protein to decay. The cells were then incubated for 24 h in respiration-only medium (Yfh1 off) with Glycerol as the carbon source to allow cells to equilibrate, and then plated in 384 well plates in respiration-only medium (Yfh1 off) with glycerol as carbon source, in the presence of Tetrazolium dye (WST-1) for 72 hours.\nPreparation of Assay • 1. Cells were streaked out on a YPGal agar plate and grown inverted for 3 days at 30 C. • 2. A colony was selected and 10 mL of YPGal medium inoculated and grown over night at 30 C with shaking. • 3. The cells were counted on a coulter counter, centrifuged at 1400 g for 5 min in dextrose (CSMM-D) medium, washed twice to remove all galactose, and resuspended in CSMM-D medium at a cell density of 2 to the power of 5 cells/mL. • 4. Frozen stocks were prepared at this point, in dextrose medium. For these dextrose stock solutions, enough culture was grown in dextrose media over night with shaking at 30 C, to get a cell density of ˜2 to the power of 7 cells/mL. The cells were centrifuged at 1400 g for 5 min and the pellet resuspended in glycerol freezing medium at a cell density of 2 to the power of 8 cells/mL. • 5. The day before the screen, frozen culture was thawed at room temperature and resuspended in glycerol (CSMM-G) medium. • 6. The culture was grown over night at 30 C with shaking and the cells counted and diluted in CSMM-G medium for a final cell density of 4 to the power of 6 cells/mL. • 7. Methyl 4-(1, 2, 4, 5-tetraazin-3-yl) phenyl ether (positive control), CSMM-G medium alone (negative control) and compounds were plated with DMSO at 200× concentration (final concentrations: methyl 4-(1, 2, 4, 5-tetraazin-3-yl) phenyl ether 25 uM, compounds 50 uM, DMSO 0.5%) in 384-well plates: 125 nL/well. For the dose response assay, compounds were plated in a 10-point dilution series ranging from 0.01 to 100 uM, at 1% DMSO. • 8. […]"}
{"smiles": "CC(=O)NC(c1ccc(C)cc1)c1cc([N+](=O)[O-])c2cccnc2c1O", "note": "(centres unmarked) [N-[{8-hydroxy-5-nitro-7-quinolinyl}(4-methylphenyl)methyl]acetamide]", "active in the screen (tetrazolium dye reduction)": "active"}
{"smiles": "CCC(=O)NC(c1ccc(OC)c(OC)c1)c1cc(Cl)c2cccnc2c1O", "note": "(centres unmarked) [N-[(5-chloro-8-hydroxyquinolin-7-yl)-(3,4-dimethoxyphenyl)methyl]propanamide]", "active in the screen (tetrazolium dye reduction)": "active"}
{"smiles": "CCC(=O)NC(c1cccs1)c1cc([N+](=O)[O-])c2cccnc2c1O", "note": "(centres unmarked) [N-[(8-hydroxy-5-nitro-quinolin-7-yl)-thiophen-2-yl-methyl]-propionamide]", "active in the screen (tetrazolium dye reduction)": "active"}
{"smiles": "CCCC(=O)NC(c1ccco1)c1cc([N+](=O)[O-])c2cccnc2c1O", "note": "(centres unmarked) [N-[2-furyl(8-hydroxy-5-nitro-7-quinolinyl)methyl]butanamide]", "active in the screen (tetrazolium dye reduction)": "active"}
{"smiles": "CCCC(=O)NC(c1cccs1)c1cc([N+](=O)[O-])c2cccnc2c1O", "note": "(centres unmarked) [N-[(8-hydroxy-5-nitroquinolin-7-yl)-thiophen-2-ylmethyl]butanamide]", "active in the screen (tetrazolium dye reduction)": "active"}
{"smiles": "CCCCC(=O)NC(c1ccccc1OC)c1ccc2cccnc2c1O", "note": "(centres unmarked) [N-[(8-hydroxyquinolin-7-yl)-(2-methoxyphenyl)methyl]pentanamide]", "active in the screen (tetrazolium dye reduction)": "active"}
{"smiles": "CCC(=O)NC(c1ccc(OC)cc1)c1cc(Cl)c2cccnc2c1O", "note": "(centres unmarked) [N-[(5-chloro-8-hydroxyquinolin-7-yl)-(4-methoxyphenyl)methyl]propanamide]", "active in the screen (tetrazolium dye reduction)": "active"}
{"smiles": "CCC(=O)NC(c1ccc(C)cc1)c1cc([N+](=O)[O-])c2cccnc2c1O", "note": "(centres unmarked) [N-[(8-Hydroxy-5-nitro-quinolin-7-yl)-p-tolyl-methyl]-propionamide]", "active in the screen (tetrazolium dye reduction)": "active"}
